Laboratory results taken from the kinase profiling compilation of Christmann-Franck et al. (2016).
Where “and” joins values, the source holds several entries; their conditions need not be identical. Identical values can stand only once.

Key:
Experiment in all cases: radiometric filter-binding kinase assay, Kinase HotSpot
Conditions in all cases: compound 0.5 µM; ATP 10 µM
[1] = biological target: NTRK3 (human) (UniProt Q16288)
[2] = biological target: DYRK2 (human) (UniProt Q92630)
[3] = biological target: FLT1 (human) (UniProt P17948)
[4] = biological target: JAK1 JH1 catalytic (human) (UniProt P23458)
[5] = biological target: MAP3K8 (human) (UniProt P41279)
[6] = biological target: SRPK3 (human) (UniProt Q9UPE1)
[7] = biological target: PNCK (human) (UniProt Q6P2M8)
PNCK (human), sequence (Q6P2M8 whole entry, looked up): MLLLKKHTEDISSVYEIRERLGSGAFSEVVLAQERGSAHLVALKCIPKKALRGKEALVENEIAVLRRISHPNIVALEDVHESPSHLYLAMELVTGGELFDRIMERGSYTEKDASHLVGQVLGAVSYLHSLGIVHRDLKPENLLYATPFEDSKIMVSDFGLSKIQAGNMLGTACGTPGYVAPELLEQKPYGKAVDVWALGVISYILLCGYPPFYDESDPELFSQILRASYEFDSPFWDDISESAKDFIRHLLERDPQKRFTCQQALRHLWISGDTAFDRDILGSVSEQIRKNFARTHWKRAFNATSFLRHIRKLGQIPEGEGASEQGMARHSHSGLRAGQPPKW

[8] = biological target: CDK7 CCNH MNAT1 (human) (UniProt P50613+P51948+P51946)
[9] = biological target: CSNK1G3 (human) (UniProt Q9Y6M4)
[10] = biological target: TSSK2 (human) (UniProt Q96PF2)
[11] = biological target: MAPKAPK5 (human) (UniProt Q8IW41)
[12] = biological target: PTK2B (human) (UniProt Q14289)
[13] = biological target: CDC42BPA (human) (UniProt Q5VT25)
[14] = biological target: MARK1 (human) (UniProt Q9P0L2)
[15] = biological target: PHKG1 (human) (UniProt Q16816)
[16] = biological target: DMPK (human) (UniProt Q09013)
[17] = biological target: PRKCH (human) (UniProt P24723)
[18] = biological target: CDK9 CCNT1 (human) (UniProt P50750+O60563)
CDK9 CCNT1 (human), sequence (O60563 whole entry, looked up): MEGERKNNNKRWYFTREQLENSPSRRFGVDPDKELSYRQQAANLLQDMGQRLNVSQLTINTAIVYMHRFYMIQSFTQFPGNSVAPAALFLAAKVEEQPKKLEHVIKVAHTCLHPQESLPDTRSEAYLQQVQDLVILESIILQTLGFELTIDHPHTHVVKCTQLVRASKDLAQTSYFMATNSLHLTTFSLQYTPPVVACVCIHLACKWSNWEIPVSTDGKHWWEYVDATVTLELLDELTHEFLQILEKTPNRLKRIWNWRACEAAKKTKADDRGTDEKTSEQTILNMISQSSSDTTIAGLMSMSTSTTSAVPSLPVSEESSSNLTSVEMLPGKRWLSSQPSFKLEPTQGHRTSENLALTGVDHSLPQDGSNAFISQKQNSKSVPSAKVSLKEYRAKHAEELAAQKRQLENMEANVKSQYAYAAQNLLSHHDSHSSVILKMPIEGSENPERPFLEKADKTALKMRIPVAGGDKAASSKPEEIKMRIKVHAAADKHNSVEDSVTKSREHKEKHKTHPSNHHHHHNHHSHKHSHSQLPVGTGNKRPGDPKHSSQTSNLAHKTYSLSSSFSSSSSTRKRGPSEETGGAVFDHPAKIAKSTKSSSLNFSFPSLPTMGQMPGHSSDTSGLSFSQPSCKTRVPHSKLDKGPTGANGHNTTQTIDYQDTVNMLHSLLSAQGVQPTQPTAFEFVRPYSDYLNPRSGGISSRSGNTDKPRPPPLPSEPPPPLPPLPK
CDK9 CCNT1 (human), sequence (P50750 whole entry, looked up): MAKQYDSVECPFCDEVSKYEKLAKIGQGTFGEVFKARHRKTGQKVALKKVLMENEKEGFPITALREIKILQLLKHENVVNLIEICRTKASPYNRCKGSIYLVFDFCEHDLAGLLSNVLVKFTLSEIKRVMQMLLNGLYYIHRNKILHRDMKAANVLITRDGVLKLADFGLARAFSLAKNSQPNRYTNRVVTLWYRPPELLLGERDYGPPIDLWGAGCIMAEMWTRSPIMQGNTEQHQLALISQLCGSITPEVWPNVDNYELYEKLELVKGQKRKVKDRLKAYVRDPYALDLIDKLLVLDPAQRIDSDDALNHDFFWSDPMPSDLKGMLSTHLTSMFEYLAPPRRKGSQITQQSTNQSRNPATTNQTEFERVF

[19] = biological target: PDGFRA (human) (UniProt P16234)
[20] = biological target: CAMK2D (human) (UniProt Q13557)
[21] = biological target: LCK (human) (UniProt P06239)
[22] = biological target: MAP3K14 (human) (UniProt Q99558)
[23] = biological target: PAK2 (human) (UniProt Q13177)
PAK2 (human), sequence (Q13177 whole entry, looked up): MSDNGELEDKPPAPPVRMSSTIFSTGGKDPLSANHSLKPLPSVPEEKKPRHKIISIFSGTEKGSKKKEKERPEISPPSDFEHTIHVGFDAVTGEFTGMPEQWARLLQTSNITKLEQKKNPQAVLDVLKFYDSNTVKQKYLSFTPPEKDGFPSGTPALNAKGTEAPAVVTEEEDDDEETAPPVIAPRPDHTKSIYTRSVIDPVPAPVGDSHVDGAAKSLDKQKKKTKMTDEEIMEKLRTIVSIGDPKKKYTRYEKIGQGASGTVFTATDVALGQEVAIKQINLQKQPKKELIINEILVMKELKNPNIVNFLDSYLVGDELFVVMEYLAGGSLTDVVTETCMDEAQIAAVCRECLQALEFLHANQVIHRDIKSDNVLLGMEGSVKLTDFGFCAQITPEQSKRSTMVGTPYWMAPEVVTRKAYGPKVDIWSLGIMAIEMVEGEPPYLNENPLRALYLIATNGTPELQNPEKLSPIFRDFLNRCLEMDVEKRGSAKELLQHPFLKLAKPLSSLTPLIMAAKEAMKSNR

[24] = biological target: CDK9 CCNK (human) (UniProt O75909+P50750)
CDK9 CCNK (human), sequence (O75909 whole entry, looked up): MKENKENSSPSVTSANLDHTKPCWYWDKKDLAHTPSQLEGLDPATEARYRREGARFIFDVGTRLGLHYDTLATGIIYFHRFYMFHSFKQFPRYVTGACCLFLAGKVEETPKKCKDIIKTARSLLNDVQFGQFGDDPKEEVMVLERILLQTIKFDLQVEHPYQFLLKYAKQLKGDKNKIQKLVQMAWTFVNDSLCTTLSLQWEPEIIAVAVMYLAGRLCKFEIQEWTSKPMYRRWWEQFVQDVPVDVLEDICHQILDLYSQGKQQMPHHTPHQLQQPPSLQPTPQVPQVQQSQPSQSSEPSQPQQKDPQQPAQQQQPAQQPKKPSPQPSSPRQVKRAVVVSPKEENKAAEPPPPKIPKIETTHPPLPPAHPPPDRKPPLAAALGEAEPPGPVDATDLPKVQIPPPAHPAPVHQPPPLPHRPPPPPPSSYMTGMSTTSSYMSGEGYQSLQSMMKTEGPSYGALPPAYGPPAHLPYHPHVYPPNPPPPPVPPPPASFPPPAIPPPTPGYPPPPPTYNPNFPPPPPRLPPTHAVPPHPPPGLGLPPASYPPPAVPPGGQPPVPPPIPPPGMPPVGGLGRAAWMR
CDK9 CCNK (human), sequence (P50750 whole entry, looked up): as the sequence (P50750 whole entry, looked up) above

[25] = biological target: FGFR3 (human) (UniProt P22607)
[26] = biological target: EPHA4 (human) (UniProt P54764)
[27] = biological target: STK3 (human) (UniProt Q13188)
[28] = biological target: DAPK1 (human) (UniProt P53355)
[29] = biological target: PRKACA (human) (UniProt P17612)
[30] = biological target: WEE1 (human) (UniProt P30291)
[31] = biological target: GSK3A (human) (UniProt P49840)
[32] = biological target: NUAK2 (human) (UniProt Q9H093)
NUAK2 (human), sequence (Q9H093 whole entry, looked up): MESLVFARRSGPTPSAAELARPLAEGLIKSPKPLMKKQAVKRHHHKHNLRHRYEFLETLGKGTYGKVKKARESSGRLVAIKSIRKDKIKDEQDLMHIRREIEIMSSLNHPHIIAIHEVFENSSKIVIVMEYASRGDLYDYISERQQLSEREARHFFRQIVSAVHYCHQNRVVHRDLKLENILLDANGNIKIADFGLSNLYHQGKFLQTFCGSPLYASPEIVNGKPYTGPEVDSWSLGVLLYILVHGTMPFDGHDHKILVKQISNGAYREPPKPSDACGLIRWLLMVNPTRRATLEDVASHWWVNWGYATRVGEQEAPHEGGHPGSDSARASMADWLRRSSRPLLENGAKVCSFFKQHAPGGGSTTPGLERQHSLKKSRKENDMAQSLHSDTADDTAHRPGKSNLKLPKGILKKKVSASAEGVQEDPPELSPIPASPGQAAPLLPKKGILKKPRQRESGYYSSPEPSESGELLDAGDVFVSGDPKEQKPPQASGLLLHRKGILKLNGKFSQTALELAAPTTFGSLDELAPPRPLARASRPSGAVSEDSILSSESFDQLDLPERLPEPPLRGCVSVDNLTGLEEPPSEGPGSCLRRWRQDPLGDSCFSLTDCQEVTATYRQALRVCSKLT

[33] = biological target: PAK3 (human) (UniProt O75914)
[34] = biological target: CSK (human) (UniProt P41240)
CSK (human), sequence (P41240 whole entry, looked up): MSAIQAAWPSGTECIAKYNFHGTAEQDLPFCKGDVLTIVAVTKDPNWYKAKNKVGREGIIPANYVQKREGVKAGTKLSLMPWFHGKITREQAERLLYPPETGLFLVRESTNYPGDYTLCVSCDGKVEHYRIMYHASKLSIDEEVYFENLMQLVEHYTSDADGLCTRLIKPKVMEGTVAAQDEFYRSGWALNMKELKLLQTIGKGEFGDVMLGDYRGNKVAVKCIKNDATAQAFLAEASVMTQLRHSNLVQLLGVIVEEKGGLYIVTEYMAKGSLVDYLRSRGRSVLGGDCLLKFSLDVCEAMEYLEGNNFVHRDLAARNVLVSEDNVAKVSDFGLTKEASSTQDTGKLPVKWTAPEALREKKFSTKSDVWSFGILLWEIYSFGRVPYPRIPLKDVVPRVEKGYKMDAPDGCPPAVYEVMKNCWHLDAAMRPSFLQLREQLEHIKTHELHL

[35] = biological target: MERTK (human) (UniProt Q12866)
[36] = biological target: LYN (human) (UniProt P07948)
[37] = biological target: PKN1 (human) (UniProt Q16512)
[38] = biological target: TEC (human) (UniProt P42680)
[39] = biological target: PTK2 (human) (UniProt Q05397)
[40] = biological target: CAMK1 (human) (UniProt Q14012)
CAMK1 (human), sequence (Q14012 whole entry, looked up): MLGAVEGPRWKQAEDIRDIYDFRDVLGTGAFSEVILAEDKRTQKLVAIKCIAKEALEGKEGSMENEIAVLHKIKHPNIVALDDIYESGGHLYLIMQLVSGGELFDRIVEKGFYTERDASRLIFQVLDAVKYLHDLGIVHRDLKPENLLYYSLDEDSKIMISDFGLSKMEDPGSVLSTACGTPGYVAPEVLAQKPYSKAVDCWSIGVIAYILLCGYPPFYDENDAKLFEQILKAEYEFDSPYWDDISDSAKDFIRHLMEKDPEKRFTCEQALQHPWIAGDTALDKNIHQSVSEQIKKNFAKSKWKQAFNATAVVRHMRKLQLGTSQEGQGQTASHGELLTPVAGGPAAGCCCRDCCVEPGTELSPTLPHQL

[41] = biological target: ACVR1B (human) (UniProt P36896)
[42] = biological target: NUAK1 (human) (UniProt O60285)
NUAK1 (human), sequence (O60285 whole entry, looked up): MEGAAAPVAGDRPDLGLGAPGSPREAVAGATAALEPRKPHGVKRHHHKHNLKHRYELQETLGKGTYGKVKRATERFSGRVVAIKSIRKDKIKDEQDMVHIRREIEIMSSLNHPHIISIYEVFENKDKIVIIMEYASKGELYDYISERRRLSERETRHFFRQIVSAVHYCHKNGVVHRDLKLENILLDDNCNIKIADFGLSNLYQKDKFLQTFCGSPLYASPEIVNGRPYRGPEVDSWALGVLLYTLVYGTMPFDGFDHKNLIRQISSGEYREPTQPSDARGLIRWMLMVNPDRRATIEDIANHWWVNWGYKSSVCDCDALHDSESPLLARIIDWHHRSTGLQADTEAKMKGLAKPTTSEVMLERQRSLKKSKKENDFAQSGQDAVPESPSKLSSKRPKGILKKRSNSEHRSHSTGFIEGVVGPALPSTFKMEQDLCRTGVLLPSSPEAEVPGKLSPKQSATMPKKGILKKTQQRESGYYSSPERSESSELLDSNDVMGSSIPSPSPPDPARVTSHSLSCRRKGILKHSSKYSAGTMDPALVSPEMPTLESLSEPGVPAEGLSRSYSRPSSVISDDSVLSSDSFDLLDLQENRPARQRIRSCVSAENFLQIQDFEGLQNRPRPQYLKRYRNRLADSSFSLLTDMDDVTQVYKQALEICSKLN

`Oc1ccc(-c2nc(-c3ccc(F)cc3)c(-c3ccncc3)[nH]2)cc1` gave a residual activity [1] of 101%, a residual activity [2] of 99.3% and a residual activity [3] of 90.6%. It also gave a residual activity [4] of 102%, a residual activity [5] of 96.6% and a residual activity [6] of 95.9%. For the same compound, the residual activity [7] was 99.7%, the residual activity [8] was 99.4% and the residual activity [9] was 102%. The residual activity [10] was 93.1%, the residual activity [11] was 102% and the residual activity [12] was 96.2%. The residual activity [13] was 94%, the residual activity [14] was 101% and the residual activity [15] was 94.2%. The residual activity [16] was 106%, the residual activity [17] was 95% and the residual activity [18] was 83.4%. For the same compound, the residual activity [19] was 98.8%, the residual activity [20] was 88.1% and the residual activity [21] was 92.6%. The residual activity [22] was 115%, the residual activity [23] was 94.1% and the residual activity [24] was 101%. It also gave a residual activity [25] of 99.2%, a residual activity [26] of 96.2% and a residual activity [27] of 105%. For the same compound, the residual activity [28] was 95%, the residual activity [29] was 84.3% and the residual activity [30] was 94.9%. For the same compound, the residual activity [31] was 91.1%, the residual activity [32] was 128% and the residual activity [33] was 98.7%. For the same compound, the residual activity [34] was 93.7%, the residual activity [35] was 85.2% and the residual activity [36] was 94.8% and 98.4%. For the same compound, the residual activity [37] was 78.9%, the residual activity [38] was 106% and the residual activity [39] was 96.9%. For the same compound, the residual activity [40] was 108%, the residual activity [41] was 136% and the residual activity [42] was 97.3%.

For `CC(C)[C@H](CO)Nc1nc(Nc2cccc(Cl)c2)c2ncn(C(C)C)c2n1`, the residual activity [1] was 15%, the residual activity [2] was 98.4% and the residual activity [3] was 102%. For the same compound, the residual activity [4] was 108%, the residual activity [5] was 101% and the residual activity [6] was 70.4%. It also gave a residual activity [7] of 97.8%, a residual activity [8] of 59.5% and a residual activity [9] of 17.3%. The residual activity [10] was 97.5%, the residual activity [11] was 97.6% and the residual activity [12] was 66.5%. It also gave a residual activity [13] of 92.3%, a residual activity [14] of 94.5% and a residual activity [15] of 89.9%. It also gave a residual activity [16] of 108%, a residual activity [17] of 92.7% and a residual activity [18] of 65%. For the same compound, the residual activity [19] was 96.9%, the residual activity [20] was 102% and the residual activity [21] was 86.9%. The residual activity [22] was 112%, the residual activity [23] was 103% and the residual activity [24] was 63.6%. It also gave a residual activity [25] of 99.2%, a residual activity [26] of 102% and a residual activity [27] of 90.8%. It also gave a residual activity [28] of 99.7%, a residual activity [29] of 102% and a residual activity [30] of 82.6%. The residual activity [31] was 108%, the residual activity [32] was 134% and the residual activity [33] was 94.2%. The residual activity [34] was 98.1%, the residual activity [35] was 84.7% and the residual activity [36] was 60.2% and 82.5%. For the same compound, the residual activity [37] was 100%, the residual activity [38] was 127% and the residual activity [39] was 85.9%. The residual activity [40] was 110%, the residual activity [41] was 99.8% and the residual activity [42] was 71.1%.

With `Cc1ccc(NC(=O)c2ccc(CN3CCN(C)CC3)cc2)cc1Nc1nc(-c2cccnc2)cs1` the residual activity [1] was 94.1%, the residual activity [2] was 109% and the residual activity [3] was 96.4%. For the same compound, the residual activity [4] was 98.8%, the residual activity [5] was 91.5% and the residual activity [6] was 102%. For the same compound, the residual activity [7] was 97%, the residual activity [8] was 110% and the residual activity [9] was 96.8%. The residual activity [10] was 102%, the residual activity [11] was 103% and the residual activity [12] was 98.9%. It also gave a residual activity [13] of 104%, a residual activity [14] of 86.9% and a residual activity [15] of 92.2%. For the same compound, the residual activity [16] was 104%, the residual activity [17] was 102% and the residual activity [18] was 99.2%. It also gave a residual activity [19] of 1.64%, a residual activity [20] of 106% and a residual activity [21] of 7.63%. The residual activity [22] was 91%, the residual activity [23] was 111% and the residual activity [24] was 109%. The residual activity [25] was 94.3%, the residual activity [26] was 105% and the residual activity [27] was 94.4%. For the same compound, the residual activity [28] was 97.5%, the residual activity [29] was 104% and the residual activity [30] was 97%. The residual activity [31] was 101%, the residual activity [32] was 98.4% and the residual activity [33] was 106%. The residual activity [34] was 104%, the residual activity [35] was 109% and the residual activity [36] was 16.2% and 18.7%. For the same compound, the residual activity [37] was 99.3%, the residual activity [38] was 83.2% and the residual activity [39] was 98.6%. For the same compound, the residual activity [40] was 102%, the residual activity [41] was 99.8% and the residual activity [42] was 110%.

Compound `O=C(NC(NC(=S)Nc1ccc(F)c([N+](=O)[O-])c1)C(Cl)(Cl)Cl)C(c1ccccc1)c1ccccc1` (stereo not drawn) has a residual activity [1] of 108%, a residual activity [2] of 102% and a residual activity [3] of 97.2%. For the same compound, the residual activity [4] was 106%, the residual activity [5] was 105% and the residual activity [6] was 98%. For the same compound, the residual activity [7] was 115%, the residual activity [8] was 99% and the residual activity [9] was 87.7%. The residual activity [10] was 92.7%, the residual activity [11] was 102% and the residual activity [12] was 102%. For the same compound, the residual activity [13] was 111%, the residual activity [14] was 101% and the residual activity [15] was 104%. For the same compound, the residual activity [16] was 85.5%, the residual activity [17] was 103% and the residual activity [18] was 95%. For the same compound, the residual activity [19] was 100%, the residual activity [20] was 102% and the residual activity [21] was 91.8%. The residual activity [22] was 92.1%, the residual activity [23] was 100% and the residual activity [24] was 110%. It also gave a residual activity [25] of 96.8%, a residual activity [26] of 101% and a residual activity [27] of 107%. It also gave a residual activity [28] of 75.1%, a residual activity [29] of 102% and a residual activity [30] of 91.8%. For the same compound, the residual activity [31] was 105%, the residual activity [32] was 108% and the residual activity [33] was 91.9%. The residual activity [34] was 99.3%, the residual activity [35] was 96.2% and the residual activity [36] was 103% and 116%. It also gave a residual activity [37] of 92.8%, a residual activity [38] of 201% and a residual activity [39] of 113%. For the same compound, the residual activity [40] was 93.1%, the residual activity [41] was 106% and the residual activity [42] was 95.3%.
